Results from patent US10285989B2, “Pyrimidinone amide compounds as PDE2 inhibitors” (Merck Sharp & Dohme Corp., priority 2015, dated 2019).

Biological target: human PDE2A1 (Homo sapiens (Human), UniProt O00408)
Experiment: PDE2 IMAP FP inhibition assay, human PDE2A1 (selectivity panel format)
Assay type: biochemical
Settings: @ 3 μM; Lab B; read-out: Human PDE2 % inhibition at a given concentration - Lab B
Protocol: Selectivity for PDE2, as compared to other PDE families, was assessed using the IMAP® technology. Human PDE10A2 enzyme was prepared from cytosolic fractions of transiently transfected HEK cells.
A Labcyte POD 810 (Labcyte, Sunnyvale, Calif.) was used to dispense 200 nL from each well of the titration plate to make eleven copies of the assay plate for each titration, one copy for each PDE enzyme. A solution of each enzyme (dilution from aliquots, sufficient to produce 20% substrate conversion) and a separate solution of FAM-labeled cAMP or FAM-labeled cGMP from Molecular Devices (Sunnyvale, Calif., product # R7506 or cGMP#R7508), at a final concentration of 50 nM were made in the assay buffer (10 mM Tris HCl, pH 7.2, 10 mM MgCl2, 0.05% NaN3 0.01% Tween-20, and 1 mM DTT). Note that the substrate for PDE2 is 50 nM FAM cAMP containing 1000 nM of cGMP. The enzyme and the substrate were then added to the assay plates in two consecutive additions of 10 μL and then shaken to mix. The reaction was allowed to proceed at room temperature for 60 minutes. A binding solution was then made from the kit components, comprised of 80% Solution A, 20% Solution B and binding reagent at a volume of 1/600 the total binding solution. The enzymatic reaction was stopped by addition of 60 μL of the binding solution to each well of the assay plate. The plates were sealed and shaken for 10 seconds. The plates were incubated at room temperature for one hour, then the parallel and perpendicular fluorescence was measured using a Tecan Genios Pro plate reader (Tecan, Switzerland). […] The intrinsic PDE2 inhibitory activity of a compound which may be used in accordance with the present invention may be determined by these assays. […]

human PDE2A1, sequence (O00408 other isoform, or with tags, fused parts or gaps): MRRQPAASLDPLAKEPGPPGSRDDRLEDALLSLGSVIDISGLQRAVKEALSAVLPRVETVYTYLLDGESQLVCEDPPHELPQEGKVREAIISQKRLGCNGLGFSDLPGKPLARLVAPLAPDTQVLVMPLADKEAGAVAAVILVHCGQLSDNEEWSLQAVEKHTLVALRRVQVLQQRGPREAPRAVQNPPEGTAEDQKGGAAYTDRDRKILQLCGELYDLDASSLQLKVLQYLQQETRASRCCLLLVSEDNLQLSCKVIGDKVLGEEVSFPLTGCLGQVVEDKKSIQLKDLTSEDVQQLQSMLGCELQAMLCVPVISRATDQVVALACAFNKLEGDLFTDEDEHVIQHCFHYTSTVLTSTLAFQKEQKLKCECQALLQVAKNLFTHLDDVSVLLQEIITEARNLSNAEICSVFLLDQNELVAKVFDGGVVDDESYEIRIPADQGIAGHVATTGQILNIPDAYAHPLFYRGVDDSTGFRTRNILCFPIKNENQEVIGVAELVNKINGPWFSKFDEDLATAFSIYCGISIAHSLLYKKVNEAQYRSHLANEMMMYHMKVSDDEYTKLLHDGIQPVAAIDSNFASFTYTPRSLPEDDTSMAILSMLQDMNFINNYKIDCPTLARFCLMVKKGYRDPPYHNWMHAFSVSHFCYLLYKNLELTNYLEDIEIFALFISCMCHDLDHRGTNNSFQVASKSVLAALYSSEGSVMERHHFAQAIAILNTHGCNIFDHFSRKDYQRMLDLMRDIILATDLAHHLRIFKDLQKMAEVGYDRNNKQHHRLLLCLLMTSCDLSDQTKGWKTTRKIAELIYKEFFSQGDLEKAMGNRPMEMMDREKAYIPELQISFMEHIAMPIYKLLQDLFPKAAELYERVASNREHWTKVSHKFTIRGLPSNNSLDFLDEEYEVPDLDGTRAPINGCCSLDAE

Q: `CN(C)c1nc(C(=O)NC(c2ccc(SC(F)(F)F)c(F)c2)C2(C)CC2)cc(=O)[nH]1` (single isomer, unassigned) [Example 119, (S)- or (R)-2-(dimethylamino)-N-[{3-fluoro-4-[(trifluoromethyl)sulfanyl]phenyl}(1-methylcyclopropyl)methyl]-6-oxo-1,6-dihydropyrimidine-4-carboxamide] was tested. Which inhibition at 3 µM did it give?
A: The inhibition at 3 µM was 49%.

Q: `CC(NC(=O)c1cc(=O)[nH]c(N(C)C)n1)c1ccc(C(C)(C)C(F)(F)F)cc1` (single isomer, unassigned) [Example 121, (S)- or (R)-2-(dimethylamino)-6-oxo-N-{1-[4-(2,2,2-trifluoro-1,1-dimethylethyl)phenyl]ethyl}-1,6-dihydropyrimidine-4-carboxamide] was tested. Which inhibition at 3 µM did it give?
A: The inhibition at 3 µM was 15%.

Q: For `CC(NC(=O)c1cc(=O)[nH]c(N(C)C)n1)c1ccc(C2(C(F)(F)F)CC2)cc1` (single isomer, unassigned) [Example 125, (S)- or (R)-2-(dimethylamino)-6-oxo-N-[1-{4-[1-(trifluoromethyl)cyclopropyl]phenyl}ethyl]-1,6-dihydropyrimidine-4-carboxamide], which inhibition at 3 µM is on record?
A: Its inhibition at 3 µM is 38%.

Same assay, conditions: Lab B; read-out: Human PDE2 Ki (nM) - Lab B

Q: How did the Ki turn out when `CC(NC(=O)c1cc(=O)[nH]c(N(C)C)n1)c1ccc(C(C)(C)C(F)(F)F)cc1` (single isomer, unassigned) [Example 122, (R)- or (S)-2-(dimethylamino)-6-oxo-N-{1-[4-(2,2,2-trifluoro-1,1-dimethylethyl)phenyl]ethyl}-1,6-dihydropyrimidine-4-carboxamide] was run?
A: The Ki was 34 nM.

Q: For `CN(C)c1nc(C(=O)NC(c2ccc(C3(C)CC3)c(F)c2)C(C)(C)C)cc(=O)[nH]1` (single isomer, unassigned) [Example 123, (S)- or (R)-2-(dimethylamino)-N-{1-[3-fluoro-4-(1-methylcyclopropyl)phenyl]-2,2-dimethylpropyl}-6-oxo-1,6-dihydropyrimidine-4-carboxamide], which Ki is on record?
A: Its Ki is 167 nM.

Q: With `CC(NC(=O)c1cc(=O)[nH]c(N(C)C)n1)c1ccc(C2(C(F)(F)F)CC2)cc1` (single isomer, unassigned) [Example 126, (R)- or (S)-2-(dimethylamino)-6-oxo-N-[1-{4-[1-(trifluoromethyl)cyclopropyl]phenyl}ethyl]-1,6-dihydropyrimidine-4-carboxamide] as the compound, how does the Ki read?
A: The Ki was 16 nM.

Q: For `CN(C)c1nc(C(=O)NC(c2ccc(S(F)(F)(F)(F)F)cc2F)C(C)(C)C)cc(=O)[nH]1` (single isomer, unassigned) [Example 127, (S)- or (R)-2-(dimethylamino)-N-{1-[2-fluoro-4-(pentafluoro-λ^6-sulfanyl)phenyl]-2,2-dimethylpropyl}-6-oxo-1,6-dihydropyrimidine-4-carboxamide], which Ki is on record?
A: The Ki was 527 nM.

Q: `CCC(C)(NC(=O)c1cc(=O)[nH]c(N(C)C)n1)c1ccc(C(F)(F)F)cc1F` (single isomer, unassigned) [Example 129, (S)- or (R)-2-(dimethylamino)-N-{1-[2-fluoro-4-(trifluoromethyl)phenyl]-1-methylpropyl}-6-oxo-1,6-dihydro-pyrimidine-4-carboxamide] was tested. Which Ki did it give?
A: Its Ki is 5.5 nM.

Q: For `COCC1CCN(c2nc(C(=O)N[C@@H](c3ccc(C(F)(F)F)cc3)C(C)(C)C)cc(=O)[nH]2)C1` (single isomer, unassigned) [Example 177, (S)- or (R)-N-{(1R)-2,2-dimethyl-1-[4-(trifluoromethyl)phenyl]propyl}-2-[3-(methoxymethyl)pyrrolidin-1-yl]-6-oxo-1,6-dihydropyrimidine-4-carboxamide], which Ki is on record?
A: The Ki was 0.46 nM.

Q: For `C[C@H]1C[C@]1(NC(=O)c1cc(=O)[nH]c(N(C)C)n1)c1ccc(C(F)(F)F)cc1` (single isomer, unassigned; enantiomer a) [Example 174, 2-(dimethylamino)-N-{2-methyl-1-[4-(trifluoromethyl)phenyl]cyclopropyl}-6-oxo-1,6-dihydropyrimidine-4-carboxamide (cis, enantiomer A)], which Ki is on record?
A: The Ki was 2.7 nM.

Q: With `C[C@H]1C[C@]1(NC(=O)c1cc(=O)[nH]c(N(C)C)n1)c1ccc(C(F)(F)F)cc1` (single isomer, unassigned; enantiomer b) [Example 175, 2-(dimethylamino)-N-{2-methyl-1-[4-(trifluoromethyl)phenyl]cyclopropyl}-6-oxo-1,6-dihydropyrimidine-4-carboxamide (cis, enantiomer B)] as the compound, how does the Ki read?
A: Its Ki is 0.92 nM.

Q: Which Ki does the source give for `CC(C)[C@@H](NC(=O)c1cc(=O)[nH]c(O)n1)c1ccc(SC(F)(F)F)cc1` [Example 20, (R)-2-hydroxy-N-(2-methyl-1-(4-((trifluoromethyl)thio)phenyl)propyl)-6-oxo-1,6-dihydropyrimidine-4-carboxamide] here?
A: Its Ki is 329 nM.

Q: Which Ki does the source give for `CN(C)c1nc(C(=O)NC2(c3ccc(C(F)(F)F)cc3F)CC2)cc(=O)[nH]1` [Example 49, 2-(dimethylamino)-N-{1-[2-fluoro-4-(trifluoromethyl)phenyl]cyclopropyl}-6-oxo-1,6-dihydropyrimidine-4-carboxamide] here?
A: The Ki was 2.7 nM.

Q: With `CN(C)c1nc(C(=O)NC2(c3ccc(OC(C)(C)C)cc3)CC2)cc(=O)[nH]1` [Example 50, N-[1-(4-tert-butoxyphenyl)cyclopropyl]-2-(dimethylamino)-6-oxo-1,6-dihydropyrimidine-4-carboxamide] as the compound, how does the Ki read?
A: Its Ki is 27 nM.

Q: For `CN(C)c1nc(C(=O)NC2(c3ccc(CC(F)(F)F)cc3)CC2)cc(=O)[nH]1` [Example 51, 2-(dimethylamino)-6-oxo-N-{1-[4-(2,2,2-trifluoroethyl)phenyl]cyclopropyl}-1,6-dihydropyrimidine-4-carboxamide], which Ki is on record?
A: The Ki was 9.7 nM.

Q: With `CN(C)c1nc(C(=O)NC2(c3ccc(OC(F)F)cc3)CC2)cc(=O)[nH]1` [Example 52, N-{1-[4-(difluoromethoxy)phenyl]cyclopropyl}-2-(dimethylamino)-6-oxo-1,6-dihydropyrimidine-4-carboxamide] as the compound, how does the Ki read?
A: Its Ki is 11 nM.

Q: Which Ki does the source give for `CN(C)c1nc(C(=O)N[C@@H](c2ccc(OC(F)F)c(F)c2)C2CC2)cc(=O)[nH]1` [Example 53, N-{(R)-cyclopropyl[4-(difluoromethoxy)-3-fluorophenyl]methyl}-2-(dimethylamino)-6-oxo-1,6-dihydropyrimidine-4-carboxamide] here?
A: The Ki was 4 nM.

Q: For `CC(C)[C@@H](NC(=O)c1cc(=O)[nH]c(N(C)C)n1)c1ccc(C(F)F)c(F)c1` [Example 65, N-{(1R)-1-[4-(difluoromethyl)-3-fluorophenyl]-2-methylpropyl}-2-(dimethylamino)-6-oxo-1,6-dihydropyrimidine-4-carboxamide], which Ki is on record?
A: Its Ki is 2.2 nM.

Q: Which Ki does the source give for `CC[C@@H](NC(=O)c1cc(=O)[nH]c(N(C)C)n1)c1ccc(C(F)F)cc1` [Example 67, N-{(1R)-1-[4-(difluoromethyl)phenyl]propyl}-2-(dimethylamino)-6-oxo-1,6-dihydropyrimidine-4-carboxamide] here?
A: Its Ki is 6.9 nM.

Q: Which Ki does the source give for `CC[C@@H](NC(=O)c1cc(=O)[nH]c(N(C)C)n1)c1ccc(C(F)F)c(F)c1` [Example 68, N-{(1R)-1-[4-(difluoromethyl)-3-fluorophenyl]propyl}-2-(dimethylamino)-6-oxo-1,6-dihydropyrimidine-4-carboxamide] here?
A: Its Ki is 12 nM.

Q: `CN(C)c1nc(C(=O)NC(C)(C)c2ccc(C(F)F)c(F)c2)cc(=O)[nH]1` [Example 69, N-{1-[4-(difluoromethyl)-3-fluorophenyl]-1-methylethyl}-2-(dimethylamino)-6-oxo-1,6-dihydropyrimidine-4-carboxamide] was tested. Which Ki did it give?
A: The Ki was 10 nM.

Q: For `CN(C)c1nc(C(=O)NC2(c3ccc(C(F)F)c(F)c3)CC2)cc(=O)[nH]1` [Example 70, N-{1-[4-(difluoromethyl)-3-fluorophenyl]cyclopropyl}-2-(dimethylamino)-6-oxo-1,6-dihydropyrimidine-4-carboxamide], which Ki is on record?
A: Its Ki is 9.7 nM.

Q: How did the Ki turn out when `CN(C)c1nc(C(=O)N[C@H](c2ccc(C(F)(F)F)cc2)C(C)(C)C)cc(=O)[nH]1` [Example 72, 2-(dimethylamino)-N-{(1S)-2,2-dimethyl-1-[4-(trifluoromethyl)phenyl]propyl}-6-oxo-1,6-dihydropyrimidine-4-carboxamide] was run?
A: Its Ki is 17 nM.

Q: For `C[C@@H](NC(=O)c1cc(=O)[nH]c(N(C)C)n1)c1ccc(C(C)(F)F)cc1` [Example 74, N-{(1R)-1-[4-(1,1-difluoroethyl)phenyl]ethyl}-2-(dimelhylamino)-6-oxo-1,6-dihydropyrimidine-4-carboxamide], which Ki is on record?
A: Its Ki is 3.9 nM.

Q: How did the Ki turn out when `CC(C)[C@@H](NC(=O)c1cc(=O)[nH]c(N(C)C)n1)c1ccc(C(C)(F)F)cc1` [Example 75, N-{(1R)-1-[4-(1,1-difluoroethyl)phenyl]-2-methylpropyl}-2-(dimethylamino)-6-oxo-1,6-dihydropyrimidine-4-carboxamide] was run?
A: The Ki was 0.39 nM.

Q: How did the Ki turn out when `CN(C)c1nc(C(=O)NC(C)(C)c2ccc(OC(F)(F)F)cc2F)cc(=O)[nH]1` [Example 81, 2-(dimethylamino)-N-{1-[2-fluoro-4-(trifluoromethoxy)phenyl]-1-methylethyl}-6-oxo-1,6-dihydropyrimidine-4-carboxamide] was run?
A: Its Ki is 21 nM.

Q: `C[C@@H](NC(=O)c1cc(=O)[nH]c(N(C)C)n1)c1ccc(S(F)(F)(F)(F)F)cc1F` [Example 116, (R)-2-(dimethylamino)-N-(1-(4-(pentafluorothio)-2-fluorophenyl)ethyl)-6-oxo-1,6-dihydropyrimidine-4-carboxamide] was tested. Which Ki did it give?
A: The Ki was 749 nM.
